From patent US20210317071A1, “PH-RESPONSIVE LIPIDS” (University of KwaZulu-Natal, priority 2016, published 2021)
Values after ≈ are worked out from the molar mass of the structure shown. Like-named read-outs stand apart in the source and are kept apart here.

How the values were obtained:
[1] = In-vitro VCM release from liposomes as a function of pH; assay type: physicochemical
Method: In-vitro drug release of VCM from the pH-responsive liposomes of the invention is illustrated in FIG. 6. At all-time intervals, VCM release at acidic pH (6.5) was higher than at physiological pH of 7.4. […] For further confirmation, the mean dissolution time (MDT 90%) for 90% of drug release was calculated from in-vitro release data. […] The MDT value is inversely proportional to the release rate, i.e. lower the MDT higher the release rate and vice versa. […] The higher drug release rate at the acidic environment from liposomes can be attributed to the alteration in the lipid bilayer orientation and permeability caused by conformational changes at the head group and hydrophobic tails of the PH-responsive lipid at low pH.

[2] = tested on: Staphylococcus aureus (SA); experiment: In-vitro antibacterial activity, MIC by broth dilution; assay type: cell-based; conditions: S. aureus
Method: (§1) The minimum inhibitory concentration (MIC) values for VCM loaded liposomes were determined against Staphylococcus aureus (SA) and Methicillin-resistant Staphylococcus aureus (MRSA) using broth dilution method (Materials Science and Engineering: C, Volume 61, 2016, Pages 616-630). The stock bacterial cultures were grown in Mueller-Hinton Broth (MHB) 24 h before the test at 37° C.
(§2) Bacterial suspensions were prepared equal to 1.5×10^8 CFU ml^−1 as half mcFarland. Serial dilutions of VCM loaded liposomal formulations were prepared in MHB broth then added to the bacterial culture, mixed properly and incubated at 37° C. for 24 hours. […] The study continued for four days to determine the sustained release activity of encapsulated VCM. Experiments were performed in triplicate and drug-free liposomes, bare VCM solution and VCM loaded liposomes without Ph-responsive lipid were used as controls.

[3] = tested on: Methicillin-resistant Staphylococcus aureus (MRSA); experiment: as above; assay type: cell-based
Method: as §1, §2

shaved rat skin = assay type: in vitro ADME, Wistar rats
Source text: All the experiments performed using animals were approved by Animal Research Ethics committee of the University of KwaZulu-Natal. In vivo study, the protocol was approved by Animal Research Ethics committee of the University of KwaZulu-Natal. The protocol approval numbers for in vivo skin infection model and transdermal permeation studies were AREC/104/015PD and AREC/054/14/Animal respectively. BALB/c mice and Wistar rats were used for in vivo skin infection model and transdermal permeation study respectively. Animals used in the study were procured from Biomedical Resource Unit of University of KwaZulu-Natal, Westville, Durban, South Africa.
All the intermediate, ester derivatives (MSAPE, MOAPE, MLAPE, MLLAPE, DSAPE, DOAPE, DLAPE, DLLAPE, TSAPE, TOAPE, TLAPE and TLLAPE) were evaluated as potential CPEs for transdermal drug delivery using tenofovir (TNF) as a model drug. The experiments were performed on shaved rat skin using Franz diffusion cells. TNF gels were prepared using hydroxypropyl methyl cellulose, milli-Q water and 1% w/w of compounds of formula 1. The permeability of TNF in the absence of enhancers was performed as a control. […] TNF was able to permeate the skin without any permeation enhancer with a steady state flux value 040.91±04.93 μg cm^−2 h^−1 (Table 6).

[4] = both pH values, study over four days
[5] = pH 6.5, DAY - I (24 h), listed as bare VCM
[6] = pH 7.4, DAY - I (24 h), listed as bare VCM

Compound	Cumulative amount of TNF permeated (shaved rat skin; Wistar, rat, 6 h, 1 % w/w) [μg cm^−2]	ER (enhancement ratio) (shaved rat skin; Wistar, rat, 6 h, 1 % w/w)	Permeability (P × 10^−2) of TNF (shaved rat skin; Wistar, rat, 6 h, 1 % w/w)	further results
CN[C@H](CC(C)C)C(=O)N[C@H]1C(=O)N[C@@H](CC(N)=O)C(=O)N[C@H]2C(=O)N[C@H]3C(=O)N[C@H](C(=O)N[C@H](C(=O)O)c4cc(O)cc(O)c4-c4cc3ccc4O)[C@H](O)c3ccc(c(Cl)c3)Oc3cc2cc(c3O[C@@H]2O[C@H](CO)[C@@H](O)[C@H](O)[C@H]2O[C@H]2C[C@](C)(N)[C@H](O)[C@H](C)O2)Oc2ccc(cc2Cl)[C@H]1O [Bare VCM, Vancomycin]				MDT90% Mean dissolution time calculated for 90% of VCM release ([1]; pH 5.5): 6.064 h; MDT90% Mean dissolution time calculated for 90% of VCM release ([1]; pH 6.5): 4.173 h; MDT90% Mean dissolution time calculated for 90% of VCM release ([1]; pH 7.4): 2.690 h; time up to which antibacterial activity was exhibited [2, 4]: ≤ 24 h; MIC ([2]; pH 6.5, DAY - I (24 h)): 7.81 µg/mL (≈ 5.39 µM); MIC [2, 5]: 1.95 µg/mL (≈ 1.35 µM); MIC ([2]; pH 7.4, DAY - I (24 h)): 3.91 µg/mL (≈ 2.7 µM); MIC [2, 6]: 8.79 µg/mL (≈ 6.07 µM); time up to which antibacterial activity was exhibited [3, 4]: ≤ 24 h; MIC ([3]; pH 6.5, DAY - I (24 h)): 15.62 µg/mL (≈ 10.8 µM); MIC [3, 5]: 0.98 µg/mL (≈ 0.676 µM); MIC ([3]; pH 7.4, DAY - I (24 h)): 7.81 µg/mL (≈ 5.39 µM); MIC [3, 6]: 0.98 µg/mL (≈ 0.676 µM)
CCCCC/C=C\C/C=C\CCCCCCCC(=O)OCC(COC(=O)CCCCCCC/C=C\C/C=C\CCCCC)NCCC(=O)OC(C)(C)C [DLAPE, 2-((3-(tert-butoxy)-3-oxopropyl)amino)propane-1,3-diyl (9Z,9′Z,12Z,12′Z)-bis(octadeca-9,12-dienoate)]	1074.62 ± 61.12	3.95	0.809 ± 0.05	
CC/C=C\C/C=C\C/C=C\CCCCCCCC(=O)OCC(COC(=O)CCCCCCC/C=C\C/C=C\C/C=C\CC)NCCC(=O)OC(C)(C)C [DLLAPE, 2-((3-(tert-butoxy)-3-oxopropyl)amino)propane-1,3-diyl (9Z,9′Z,12Z,12′Z,15Z,15′Z)-bis(octadeca-9,12,15-trienoate)]	400.37 ± 18.92	1.65	0.337 ± 0.01	
CCCCCCCC/C=C\CCCCCCCC(=O)OCC(COC(=O)CCCCCCC/C=C\CCCCCCCC)NCCC(=O)OC(C)(C)C [DOAPE, 2-((3-(tert-butoxy)-3-oxopropyl)amino)propane-1,3-diyl dioleate]	424.95 ± 59.84	1.71	0.350 ± 0.05	
CCCCCCCCCCCCCCCCCC(=O)OCC(COC(=O)CCCCCCCCCCCCCCCCC)NCCC(=O)OC(C)(C)C [DSAPE, 2-((3-(tert-butoxy)-3-oxopropyl)amino)propane-1,3-diyl distearate]	336.1 ± 25.67	1.40	0.286 ± 0.02	
CCCCC/C=C\C/C=C\CCCCCCCC(=O)OCCNCCC(=O)OC(C)(C)C [MLAPE, 2-((3-(tert-butoxy)-3-oxopropyl)amino)ethyl (9Z,12Z)-octadeca-9,12-dienoate]	574.97 ± 74.09	2.25	0.460 ± 0.06	
CC/C=C\C/C=C\C/C=C\CCCCCCCC(=O)OCCNCCC(=O)OC(C)(C)C [MLLAPE, 2-((3-(tert-butoxy)-3-oxopropyl)amino)ethyl (9Z,12Z,15Z)-octadeca-9,12,15-trienoate]	945.88 ± 44.93	3.70	0.758 ± 0.04	
CCCCCCCC/C=C\CCCCCCCC(=O)OCCNCCC(=O)OC(C)(C)C [MOAPE, 2-((3-(tert-butoxy)-3-oxopropyl)amino)ethyl oleate]	1594.06 ± 198.92	5.58	1.142 ± 0.16	
CCCCCCCCCCCCCCCCCC(=O)OCCNCCC(=O)OC(C)(C)C [MSAPE, 2-((3-(tert-butoxy)-3-oxopropyl)amino)ethyl stearate]	407.12 ± 66.51	1.55	0.317 ± 0.06	
C[C@H](Cn1cnc2c(N)ncnc21)OCP(=O)(O)O [TNF, tenofovir, reference compound]				Cumulative amount of TNF permeated (shaved rat skin): 253.10±23.84 μg cm^−2
CCCCCCCC/C=C/CCCCCCCC(=O)OCC(COC(=O)CCCCCCC/C=C/CCCCCCCC)(COC(=O)CCCCCCC/C=C/CCCCCCCC)NCCC(=O)OC(C)(C)C [TOAPE, 2-((3-(tert-butoxy)-3-oxopropyl)amino)-2-((((Z)-octadec-9-enoyl)oxy)methyl)propane-1,3-diyl(9Z,9′Z)-bis(octadec-9-enoate)]	342.3 ± 26.94	1.50	0.306 ± 0.02	
CCCCCCCCCCCCCCCCCC(=O)OCC(COC(=O)CCCCCCCCCCCCCCCCC)(COC(=O)CCCCCCCCCCCCCCCCC)NCCC(=O)OC(C)(C)C [TSAPE, 2-((3-(tert-butoxy)-3-oxopropyl)amino)-2-((stearoyloxy)methyl) propane-1,3-diyl distearate]	531.70 ± 23.87	2.09	0.428 ± 0.02	
